# Laboratory results published in PubChem BioAssay (NCI).
#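 Interpolation was linear, between the two tested concentrations surrounding the appropriate level; five concentrations were tested over 48 hours in 96-well plates. TGI: total growth inhibition.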
# What was measured:
# Assay in all cases: NCI-60 cell line screen, 48 h
# [1] = test system: M14 melanoma
# [2] = test system: HT29 colon
# [3] = test system: SF-268 CNS
# [4] = test system: MOLT-4 leukemia
# [5] = test system: IGROV1 ovarian
# [6] = test system: NCI-H522 lung
# [7] = test system: 786-0 renal
# [8] = test system: A549 NSCLC
# [9] = test system: HOP-92 NSCLC
structure (smiles),measurement,setting,value
COC(=O)[C@H](Cc1ccccc1)NC(=O)N(CCNC(=O)OC(C)(C)C)c1ccccc1,TGI,[1],> 100 µM
same,TGI,[2],> 100 µM
same,TGI,[3],> 100 µM
same,TGI,[4],> 100 µM
same,TGI,[5],> 100 µM
same,TGI,[6],> 100 µM
same,TGI,[7],> 100 µM
same,TGI,[8],> 100 µM
O=C1N[C@H](C(=O)O)[C@@H](c2ccc(OCc3ccccc3)cc2)O1,TGI,[1],> 100 µM
same,TGI,[2],> 100 µM
same,TGI,[3],87.9 µM
same,TGI,[4],> 100 µM
same,TGI,[5],78.6 µM
same,TGI,[6],> 100 µM
same,TGI,[7],65.6 µM
same,TGI,[8],> 100 µM
Cn1c(=S)[nH]c(N)c(Cc2ccccc2)c1=O,TGI,[9],97.1 µM
same,TGI,[1],> 100 µM
same,TGI,[2],> 100 µM
same,TGI,[3],> 100 µM
same,TGI,[4],> 100 µM
same,TGI,[5],68.4 µM
same,TGI,[7],> 100 µM
same,TGI,[8],> 100 µM
Cc1cc(=O)oc2c(C)c3oc(CBr)cc3cc12,TGI,[1],34.8 µM
same,TGI,[2],79.9 µM
same,TGI,[3],51.5 µM
same,TGI,[4],54.3 µM
same,TGI,[5],33.3 µM
same,TGI,[6],30.1 µM
same,TGI,[7],32 µM
same,TGI,[8],33.3 µM
COc1ccc(Nc2cc(=O)[nH]c(=O)[nH]2)cc1,TGI,[9],> 100 µM
same,TGI,[1],> 100 µM
same,TGI,[2],> 100 µM
same,TGI,[3],> 100 µM
same,TGI,[4],> 100 µM
same,TGI,[5],> 100 µM
same,TGI,[7],> 100 µM
same,TGI,[8],> 100 µM
CCOC(=O)c1cc([N+](=O)[O-])c(Sc2ncnc3nc[nH]c23)c([N+](=O)[O-])c1,TGI,[9],7.85 µM
same,TGI,[1],15 µM
same,TGI,[2],14.5 µM
same,TGI,[3],17.8 µM
same,TGI,[5],13.7 µM
same,TGI,[6],2.34 µM
same,TGI,[7],7.98 µM
same,TGI,[8],55.6 µM
O=C(Nc1ccc(F)cc1)c1cc2c(cc1Cl)Sc1nccn1S2(=O)=O,TGI,[1],> 100 µM
same,TGI,[2],> 100 µM
same,TGI,[3],> 100 µM
same,TGI,[4],> 100 µM
same,TGI,[5],> 100 µM
same,TGI,[6],> 100 µM
same,TGI,[7],> 100 µM
same,TGI,[8],> 100 µM
COc1ccc(CNc2nc3cc(C(F)(F)F)ccc3nc2C(=O)O)cc1,TGI,[9],62.9 µM
same,TGI,[1],58.1 µM
same,TGI,[2],73.9 µM
same,TGI,[4],52.6 µM
same,TGI,[5],> 100 µM
same,TGI,[7],63.2 µM
same,TGI,[8],95.9 µM
C=CCOCn1cnc2c(=O)[nH]c(N)nc21,TGI,[1],> 100 µM
same,TGI,[3],> 100 µM
same,TGI,[4],> 100 µM
same,TGI,[5],> 100 µM
same,TGI,[7],> 100 µM
same,TGI,[8],> 100 µM
C#CCn1c(=O)ccn(/C(=C/C(=O)OCC)C(=O)OCC)c1=O,TGI,[9],6.32 µM
same,TGI,[1],11.8 µM
same,TGI,[2],5.64 µM
same,TGI,[3],26.9 µM
same,TGI,[4],> 56.4 µM
same,TGI,[5],13.8 µM
same,TGI,[7],32.5 µM
same,TGI,[8],34.9 µM
